Results from patent US9969758B2, “Antimicrobial compounds” (BIOMERIEUX, priority 2014, dated 2018).
Values after ≈ are worked out from the molar mass of the structure shown.

Key:
[1] = tested on: E. coli (53); assay: MIC by agar dilution; type: cell-based, Escherichia coli
Method in brief: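 Agar dilution on peptone-free medium with 2% lysed horse blood, NAD and hemin (25.0 μg/mL each), compounds 0.0031 to 8.0 μg/mL; inoculum 10 000 CFU/spot, 22 h at 37° C. Fosfomycin tested in IsoSensitest medium plus 25.0 μg/mL glucose-6-phosphate; at least two replicates.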

[2] = tested on: S. marcescens (n=1); assay: MIC by agar dilution; type: cell-based, Serratia marcescens
Source text: Bacterial isolates. […] These included Citrobacter freundii (n=5), other species of Citrobacter (n=4), Enterobacter aerogenes (n=1), Enterobacter cloacae (n=27), Escherichia coli (n=53), Klebsiella oxytoca (n=5), Klebsiella pneumoniae (n=87), Kluyvera spp (n=1), Proteus mirabilis (n=8), Providencia rettgeri (n=2), Salmonella spp (n=3), and Serratia marcescens (n=1). Among these 197 isolates, there were 128 (65%) carbapenemase producers, including; 87 with NDM-1, 9 with IMP, 11 with KPC, 14 with OXA-48 and 7 with VIM. The majority of the carbapenemase producers jointly produced broad-spectrum β-lactamases (BSBL) or cephalosporinases (AmpC β-lactamases), but the latter are not documented for the sake of clarity.
Determining the minimum inhibitory concentrations (MIC). All the MICs were determined using an agar dilution method. This required use of a medium without a defined antagonist (peptone-free), prepared as described previously with the inclusion of 2% horse blood lysed with saponin, 25.0 μg/mL of NAD and 25.0 μg/mL of hemin [17]. […] The MICs of fosfomycin were determined by the same method, except that the IsoSensitest medium (Oxoid, Basingstoke, United Kingdom) was used, plus 25.0 μg/mL of glucose-6-phosphate (Sigma, Poole, United Kingdom) and an extended range of fosfomycin concentrations. […]

C[C@H](N)C(=O)N[C@@H](C)P(=O)(O)O [Alafosfalin, L-alanyl-L-1-aminoethylphosphonic acid]
concentration by which growth of all the isolates was inhibited ([1]; 53 isolates of E. coli): 2 µg/mL
activity relative to that of fosfomycin ([1]; E. coli): approximately four
MIC Range ([1]; E. coli (53)): ≤0.031-2 ^ μg/mL
MIC50 ([1]; Escherichia coli, E. coli (53), read-out: MIC50): 0.125 µg/mL (≈ 0.637 µM)
MIC90 ([1]; Escherichia coli, E. coli (53), read-out: MIC90): 0.25 µg/mL (≈ 1.27 µM)
MIC ([1]; Escherichia coli, E. coli (53), read-out: Modal MIC (most frequent MIC)): 0.063 µg/mL (≈ 0.321 µM)
concentration to which all the isolates were sensitive [2]: ≤ 4 µg/mL
